# Assay results published in patent publication US12239643B2, “Therapeutic agent for inflammatory diseases, autoimmune diseases, fibrotic diseases, and cancer diseases” (MEIJI SEIKA PHARMA CO., LTD., priority 2018, dated 2025).
# Tested on: PDE4
# Test: Evaluation of PDE4 inhibitory activity, scintillation proximity assay
# Type: biochemical
# Conditions: scintillation proximity assay; class symbols of Evaluation 1; read-out: PDE4 Inhibitory Activity (concentration for the inhibition rate of 50%, IC50), Evaluation 1
# Experimental: The BDE4 inhibitory activity was measured using scintillation proximity assay (SPA) as follows. First, a test compound dissolved in dimethyl sulfoxide was diluted 1:10 in reaction buffer solution which contained 50 mM of Tris-HCl with pH 7.4, 8.3 mM of MgCl2, 1.7 mM of EGTA, and 3 mg/mL of bovine serum albumin (BSA). Then, 10 μL of the diluted solution was added in a 96-well assay plate. Moreover, 50 μL of PDE4 (enzyme preparation) diluted 1:375 in the reaction buffer solution was added, and then 40 μL of [2,8-^3H]-adenosine-3′,5′-cyclic phosphate triethylammonium salt diluted 1:1000 in the reaction buffer solution was added. The mixture was allowed to stand at room temperature for 120 minutes. Thereafter, […] of RNA binding YSi-SPA beads suspension containing ZnSO4 was added and the mixture was allowed to stand at room temperature for 15 minutes, followed by adsorption of the enzyme reaction product to the beads. After that, the radioactivity was measured using a liquid scintillation counter for a 96-well plate. The mixture without the enzyme preparation added but only the reaction buffer solution added is a blank, and the mixture with the enzyme preparation added and only dimethyl sulfoxide added instead of the test compound is a control.
# In addition, the PDE4 inhibitory activity (concentration that inhibits PDE4 activity by 50%=concentration for the inhibition rate of 50% (IC50)) of the test compound was calculated from the inhibition curves based on the inhibition rates for various concentrations of the test compound.
row,Compound,IC50
1,"N#CCOc1ccc(-c2nccs2)c2oc(N3CC4CCC(C3)N4)nc12 [Example 82, 2-((2-(3,8-Diazabicyclo[3.2.1]octan-3-yl)-7-(thiazol-2-yl)benzo[d]oxazol-4-yl)oxy)acetonitrile]",< 100 nM
2,"COCC(O)COc1ccc(-c2nccs2)c2oc(N3CC4CCC(C3)N4)nc12 (stereo not drawn) [Example 83, 1-((2-(3,8-Diazabicyclo[3.2.1]octan-3-yl)-7-(thiazol-2-yl)benzo[d]oxazol-4-yl)oxy)-3-methoxypropan-2-ol]",< 100 nM
3,"c1csc(-c2ccc(OC3CCOC3)c3nc(N4CC5CCC(C4)N5)oc23)n1 (stereo not drawn) [Example 84, 2-(3,8-Diazabicyclo[3.2.1]octan-3-yl)-4-((tetrahydrofuran-3-yl)oxy)-7-(thiazol-2-yl)benzo[d]oxazole]",< 100 nM
4,"c1csc(-c2ccc(-c3nccs3)c3oc(N4CC5CCC(C4)N5)nc23)n1 [Example 85, 2-(3,8-Diazabicyclo[3.2.1]octan-3-yl)-4,7-di(thiazol-2-yl)benzo[d]oxazole]",< 100 nM
5,"CCOC(=O)c1cc(-c2nccs2)c2oc(N3CC4CCC(C3)N4)nc2c1 [Example 86, Ethyl 2-(3,8-diazabicyclo[3.2.1]octan-3-yl)-7-(thiazol-2-yl)benzo[d]oxazole-5-carboxylate]",< 100 nM
6,"CCOC(=O)c1cc(-c2nccs2)c2oc(N3CC4CC(C3)N4)nc2c1 [Example 87, Ethyl 2-(3,6-diazabicyclo[3.1.1]heptan-3-yl)-7-(thiazol-2-yl)benzo[d]oxazole-5-carboxylate]",< 100 nM
7,"CCOC(=O)c1cc(-c2nccs2)c2oc(N3CC4COCC(C3)N4)nc2c1 [Example 88, Ethyl 2-(3-oxa-7,9-diazabicyclo[3.3.1]nonan-7-yl)-7-(thiazol-2-yl)benzo[d]oxazole-5-carboxylate]",100 to 1000 nM
8,"CCOC(=O)c1cc(-c2nccs2)c2oc(N3CC4CCCC(C3)N4)nc2c1 [Example 89, Ethyl 2-(3,9-diazabicyclo[3.3.1]nonan-3-yl)-7-(thiazol-2-yl)benzo[d]oxazole-5-carboxylate]",< 100 nM
9,"CCOC(=O)c1cc(-n2cccn2)c2oc(N3CC4CCC(C3)N4)nc2c1 [Example 90, Ethyl 2-(3,8-diazabicyclo[3.2.1]octan-3-yl)-7-(1H-pyrazol-1-yl)benzo[d]oxazole-5-carboxylate]",100 to 1000 nM
10,"CCOC(=O)c1cc(-n2cccn2)c2oc(N3CC4CC(C3)N4)nc2c1 [Example 91, Ethyl 2-(3,6-diazabicyclo[3.1.1]heptan-3-yl)-7-(1H-pyrazol-1-yl)benzo[d]oxazole-5-carboxylate]",> 1000 nM
11,"CCOC(=O)c1cc(-n2cccn2)c2oc(N3CC4COCC(C3)N4)nc2c1 [Example 92, Ethyl 2-(3-oxa-7,9-diazabicyclo[3.3.1]nonan-7-yl)-7-(1H-pyrazol-1-yl)benzo[d]oxazole-5-carboxylate]",> 1000 nM
12,"CCOC(=O)c1cc(-n2cccn2)c2oc(N3CC4CCCC(C3)N4)nc2c1 [Example 93, Ethyl 2-(3,9-diazabicyclo[3.3.1]nonan-3-yl)-7-(1H-pyrazol-1-yl)benzo[d]oxazole-5-carboxylate]",100 to 1000 nM
13,"CN(C)C(=O)c1cc(-c2nccs2)c2oc(N3CC4CCC(C3)N4)nc2c1 [Example 94, 2-(3,8-Diazabicyclo[3.2.1]octan-3-yl)-N,N-dimethyl-7-(thiazol-2-yl)benzo[d]oxazole-5-carboxamide]",< 100 nM
14,"O=C(c1cc(-c2nccs2)c2oc(N3CC4CCC(C3)N4)nc2c1)N1CCOCC1 [Example 95, (2-(3,8-Diazabicyclo[3.2.1]octan-3-yl)-7-(thiazol-2-yl)benzo[d]oxazol-5-yl) (morpholino)methanone]",< 100 nM
15,"O=C(c1cc(-c2nccs2)c2oc(N3CC4CCC(C3)N4)nc2c1)N1CCCCC1 [Example 96, (2-(3,8-Diazabicyclo[3.2.1]octan-3-yl)-7-(thiazol-2-yl)benzo[d]oxazol-5-yl)(piperidin-1-yl)methanone]",< 100 nM
